The values that follow are results of earlier work, collected in the CATMoS acute toxicity set (Mansouri et al. 2021).

Each structure is given as a SMILES string. “And” between values parts separate entries of the source, which are not always exact repeats. Equal values may be shown once.

A short description of this data set: rat acute oral toxicity. To be noted: in vivo.
As for `CCC(CC)C(=O)O`, the LD50 was 2200 mg/kg. On to `CCOP(=O)(Oc1ccc(Cl)cc1Cl)Oc1ccc(Cl)cc1Cl`, for which the median lethal dose (LD50) was 6200 mg/kg. In the case of `Nc1ccc(O)c2c1C(=O)c1c(N)c(Br)cc(O)c1C2=O`, the LD50 is 12500 mg/kg. Consider `Cc1nc(C)c(Cl)c(O)c1Cl`, for which the LD50 was 18000 mg/kg. For the compound `CCCNC(=O)c1sc(-c2cc(OC)c(OC)c(OC)c2)nc1C`, the LD50 was 5600 mg/kg. For `CCCCOC(=O)CC(CC(=O)OCCCC)(OC(C)=O)C(=O)OCCCC`, the LD50 is 31400 mg/kg. For `FCCOC(Cl)C(Cl)(Cl)Cl` (stereo not given), the median lethal dose (LD50) is 18 mg/kg. For the compound `CC(=O)Oc1ccc(Br)cc1C(=O)O`, the LD50 is 1130 mg/kg. In the case of `CCOP(=S)(OCC)Oc1ccc([N+](=O)[O-])c(Cl)c1`, the LD50 is 50 mg/kg. On to `COC(=O)C=C(C)N`, for which the LD50 was 1760 mg/kg. Regarding `CCC(=O)CC`, the LD50 was 2140 mg/kg.

For `CCN(CC)c1ccc(C=O)c(O)c1`, the median lethal dose (LD50) was 2260 mg/kg. In the case of `C#CCSP(=O)(OCC)OCC`, the LD50 was 18 mg/kg. As for `Cc1cccn2c(=O)c(-c3nnn[nH]3)cnc12`, the median lethal dose (LD50) was 687 mg/kg. For the compound `C1CN1P1(N2CC2)=NP(N2CC2)(N2CC2)=NP(N2CC2)(N2CC2)=N1`, the LD50 was 98 mg/kg. `O=[N+]([O-])c1ccc(OP(=O)(OCCCCl)OCCCCl)cc1`: the LD50 was 33 mg/kg. `CCN(CC(=O)OCC(F)(F)F)c1cccc(C)c1`: the LD50 is 1900 mg/kg. Turning to `CN(SC(Cl)(Cl)Cl)C(=O)Oc1cccc2c1OC(C)(C)C2`, the LD50 was 125 mg/kg. Consider `C[C@H](NCC=C(c1ccsc1)c1ccsc1)[C@H](O)c1ccccc1`, for which the LD50 is 6600 mg/kg. For `CCCCOCCC(=O)O`, the LD50 is 5190 mg/kg.

`Cc1cccc(Cl)c1NC(=O)/C=C1\SCC(=O)N1C`: the LD50 was 1350 mg/kg. As to `COc1cccc(N)c1`, the LD50 was 526 mg/kg. In the case of `CC[N+](CC)(CC(=O)Nc1c(C)cccc1C)Cc1ccccc1`, the LD50 was 584 mg/kg. With `COc1ccc2nc3c(c(N)c2c1)CCCC3`, the LD50 was 753 mg/kg. Take `Cc1cc(=O)n(CSP(=S)(OC(C)C)OC(C)C)nc1Cl`: the LD50 is 110 mg/kg. As for `CCOC(=O)C(C#N)C(=O)Cc1c(C)n(C(=O)c2ccc(Cl)cc2)c2ccc(OC)cc12` (stereo not given), the LD50 is 82 mg/kg.

As to `Cc1ccc(S(=O)(=O)Cl)cc1`, the LD50 was 4680 mg/kg. `N/C(CNc1ccc(Cl)c(Cl)c1)=N/O`: the LD50 is 245 mg/kg. For `CCN(CC)c1cccc(OC(=O)NC)c1`, the median lethal dose (LD50) was 91 mg/kg.

In the case of `CCOc1occ2cnc(C)c(O)c12`, the LD50 is 2150 mg/kg.

As for `CON=CC1=CCCN(OC(=O)Nc2ccc(Cl)cc2)C1`, the LD50 is 500 mg/kg. On to `c1nc(NC2CC2)c2ncn(CC3CC3)c2n1`, for which the median lethal dose (LD50) is 160 mg/kg. As for `C[C@]12CCC(=O)C=C1[C@@H]1C[C@@H]1[C@@H]1[C@@H]2CC[C@@]2(C)[C@H]1CC[C@@]2(O)CCC(=O)O`, the 50% lethal dose (LD50) is 1400 mg/kg. On to `CCCN(CCC)C(=O)C(CCC(=O)NCCCOC(=O)Cc1c(C)n(C(=O)c2ccc(Cl)cc2)c2ccc(OC)cc12)NC(=O)c1ccccc1` (stereo not given), for which the LD50 was 370 mg/kg. Turning to `CCN(CCO)c1ccccc1`, the LD50 is 1640 mg/kg. Consider `S=C=NCCN=C=S`, for which the LD50 was 112 mg/kg. Consider `CN(C)P1(=S)OCc2cc([N+](=O)[O-])ccc2O1` (stereo not given), for which the LD50 is 125 mg/kg.

For the compound `CCCSP(=O)(OCC)Oc1ccc(Cl)cc1Cl` (stereo not given), the LD50 was 320 mg/kg. `CC(C)/N=C(\N)NC(C)C`: the LD50 was 2880 mg/kg. As to `O=C(O)c1ccc2c(c1)CCC(Cn1ccnc1)C2` (stereo not given), the median lethal dose (LD50) was 1990 mg/kg.

Take `CC(C)=CC1C(C(=O)OCc2cccc(Oc3ccccc3)c2)C1(C)C` (stereo not given): the LD50 was 500 mg/kg.

Turning to `OC(CCN1CCCCC1)(c1ccccc1)C1CC2C=CC1C2` (stereo not given), the LD50 was 750 mg/kg.

Consider `CNC(=O)Oc1cccc2ccc(C)nc12`, for which the LD50 is 120 mg/kg. As to `CCOC(=O)c1ncn2c1CN(C)C(=O)c1cc(F)ccc1-2`, the LD50 is 4200 mg/kg.

`[O-][n+]1c2ccccc2nc2ccccc21`: the LD50 was 6600 mg/kg. Consider `CC=CC#N`, for which the LD50 was 167 mg/kg and 501 mg/kg.

In the case of `Cc1c(Cl)c(Cl)c(Cl)c(C(Cl)Cl)c1Cl`, the LD50 was 2920 mg/kg.

`CC(C)NCC(O)COc1ccc(CCOCC2CC2)cc1` (stereo not given): the LD50 was 998 mg/kg. With `CC(Oc1ccc(Oc2ccc(Cl)cc2)cc1)C(=O)O` (stereo not given), the LD50 was 1200 mg/kg.

Take `CCN(CC)C(C)C(=O)c1ccccc1` (stereo not given): the LD50 was 400 mg/kg. In the case of `O=C1CCCCC1(CCN1CCCCCC1)C(=O)OCc1ccccc1` (stereo not given), the LD50 is 450 mg/kg. In the case of `CON(C(=O)CSP(=S)(OC)OC)C(C)C`, the LD50 is 260 mg/kg. Regarding `COCCc1ccccc1`, the LD50 was 4100 mg/kg. Turning to `CCCc1ccc(C=O)cc1`, the LD50 was 1600 mg/kg. Consider `O=C1N=C2c3ccccc3N=CN2C1=Cc1ccccc1`, for which the LD50 was 325 mg/kg.

In the case of `CCOC(C1=NCC(CC)(CC)CN1)c1cccc(Cl)c1` (stereo not given), the LD50 is 110 mg/kg. Consider `COc1cc(OC)c(C(=O)CCCN2CCCC2)c(OC)c1`, for which the LD50 was 410 mg/kg. On to `Cc1cc(=O)nc(C(C)C)[nH]1`, for which the LD50 is 2700 mg/kg. Consider `CCCCCCCCCCCCCCCC[N+](C)(C)C`, for which the LD50 was 410 mg/kg. As for `CC1C(C)(C)C2=C(C(=O)CCC2)C1(C)C` (stereo not given), the LD50 was 2900 mg/kg.

The LD50 is the dose expected to kill half of the subjects tested.
